The nature of series [1]: Rat PK, single oral gavage. It counts as in vivo. The settings on record: single dose 0.1 mg/kg.
Series [2] in a line: Mouse PK, single oral gavage. The settings on record: mouse, in vivo, po, 0.3 mg/kg, single dose 0.3 mg/kg; for AUC: Mouse AUC, 20% PEG400 in oleic acid-rich triglyceride.
In series [3] the target is T1, soluble epoxide hydrolase (sEH) (Homo sapiens, UniProt P34913).
T1 sequence (P34913 1-555): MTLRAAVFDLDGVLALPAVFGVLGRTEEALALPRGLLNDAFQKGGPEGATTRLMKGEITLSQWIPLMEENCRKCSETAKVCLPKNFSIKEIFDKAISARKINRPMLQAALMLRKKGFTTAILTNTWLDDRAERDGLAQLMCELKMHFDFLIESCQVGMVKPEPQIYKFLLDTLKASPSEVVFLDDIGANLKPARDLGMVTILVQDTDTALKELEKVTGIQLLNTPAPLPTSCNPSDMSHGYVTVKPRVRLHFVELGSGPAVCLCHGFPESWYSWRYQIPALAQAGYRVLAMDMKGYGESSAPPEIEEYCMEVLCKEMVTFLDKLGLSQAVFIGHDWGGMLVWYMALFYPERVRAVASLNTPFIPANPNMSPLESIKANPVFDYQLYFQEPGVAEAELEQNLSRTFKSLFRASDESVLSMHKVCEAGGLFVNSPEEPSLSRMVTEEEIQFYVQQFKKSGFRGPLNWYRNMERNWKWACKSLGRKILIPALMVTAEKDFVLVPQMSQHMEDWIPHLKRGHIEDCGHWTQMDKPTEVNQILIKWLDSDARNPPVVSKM
Description: Human in vitro Ki and dissociation t1/2 from the enzyme (fluorescence signals). It counts as binding. The settings on record: for Human In vitro t1/2 (time for half of the drug being dissociated from the enzyme): based on fluorescence signals.

Series [4] relates to Neonatal rat ventricular myocytes (NRVM) expressing 2157del2 JUP. Description: Immunofluorescence of junction proteins in ACM in vitro model. It counts as cell-based. The settings on record: for ACM disease features/readouts overall, EET and EEZE / ACM disease features overall (plakoglobin, Cx43, pRelA/p65, TUNEL), sEH inhibitors: Jup2157del2 myocytes; for ACM disease features/readouts overall, EET and EEZE: 10 μM; for ACM disease features overall (plakoglobin, Cx43, pRelA/p65, TUNEL), sEH inhibitors: 2.017 500 nM, 1.045 1 μM, concentration not given for 1,002 and 3.023; for Loss of cell surface signal for Cx43 / Redistribution of junctional plakoglobin to intracellular/nuclear sites: 500 nM 2.017 or 1 μM 1.045, 24 hours. The method, then: Neonatal rat ventricular myocytes (NRVM) were isolated from the ventricles of 1-day-old Wistar rat pups and plated on collagen-coated plastic chambers. 24 hours following seeding, the cells were transfected with an adenoviral construct expressing a mutant form of plakoglobin known to cause arrhythmogenic cardiomyopathy in patients (2157del2 JUP). […] Non-transfected cultures and cultures transfected with the adenoviral construct only served as negative and positive controls, respectively.
(§1) Immunofluorescence: Cell cultures were fixed with 4% paraformaldehyde and prepared for immunofluorescence analysis as previously described (1). […] Cy3-conjugated goat anti-mouse and anti-rabbit antibodies (Jackson Immunolabs) were used as secondary antibodies and DAPI was used to visualize the nuclei. Immunostained preparations were visualized by confocal microscopy and changes in spatial distribution of signal were assessed qualitatively.

Series [5] is described as follows: Experimental LogP. It counts as physicochemical.
Series [6] relates to NFκB. Description: Nuclear pRelA/p65 immunofluorescence (NFκB activation) in ACM in vitro model. It counts as cell-based, rat. The settings on record: 500 nM 2.017 or 1 μM 1.045, 24 hours. The protocol: (§2) Neonatal rat ventricular myocytes (NRVM) were isolated from the ventricles of 1-day-old Wistar rat pups and plated on collagen-coated plastic chambers. 24 hours following seeding, the cells were transfected with an adenoviral construct expressing a mutant form of plakoglobin known to cause arrhythmogenic cardiomyopathy in patients (2157del2 JUP). 24 hours following transfection, the cells were treated with 500 nM 2.017 or 1 μM 1.045 for an additional 24 hours. Non-transfected cultures and cultures transfected with the adenoviral construct only served as negative and positive controls, respectively.
as §1

Series [7] concerns Dsg2^mut/mut mice. The series can be described thus: LV function in Dsg2mut/mut mice. It counts as in vivo, mouse. Conditions: 3 mg/kg/day for 20 days, vs. untreated mice.
Series [8] deals with Neonatal rat ventricular myocytes (NRVM) expressing 2157del2 JUP. Description: TUNEL apoptosis assay in ACM in vitro model. It counts as cell-based. Conditions: 500 nM 2.017 or 1 μM 1.045, 24 hours. The method, then: as §2
Apoptosis assay: Terminal deoxynucleotidyl transferase dUTP nick end labelling (TUNEL) was performed on NRVM cultures following the manufacturer's instructions (Millipore, S7110). DNA strand breaks generated in apoptotic cells were labelled with fluorescein (green) and nuclei were visualized with DAPI. The number of TUNEL-positive nuclei was counted in 5 randomly selected high-power fields in each culture well and expressed as a percent of total nuclei visualized with DAPI.

Series [9] in a line: Solubility in buffer. It counts as physicochemical. The settings on record: aqueous buffer; Sodium Phosphate Buffer at pH 7.4.

≈ marks a conversion by molar mass, not a printed value. Entries after “also recorded” stand apart in the source; their conditions may differ.

Consider `CC[C@H](C)C(=O)N1CCC(NC(=O)Nc2ccc(OC(F)(F)F)c(Cl)c2)CC1`, for which, in series [1] (rat, in vivo), the Cmax amounted to 42 ± 6 nM and the Tmax turned out to be 2.1 ± 0.3 h. Further, in series [1] (rat, in vivo, PEG 300), the AUC amounted to 0.241 ± 0.012 µM·h. The half-life in [1] (rat, in vivo, read-out: Rat T1/2 (converted)) was 2.9 ± 0.5 h. This compound displayed an AUC in [2] (oral gavage) of at least 0.0999 µM·h. Further, the “Human In vitro t1/2 (time for half of the drug being dissociated from the enzyme)” value in series [3] came to 0.167 h.

As to `CCCCCC1OC1CCCCCCC/C=C\CCCC(=O)O` (stereo not drawn) [14,15-EE-5(Z)E, reference compound], the “ACM disease features/readouts overall, EET and EEZE” value in series [4] is “intensified ACM disease readouts; also recorded: intensifies these ACM disease features; also recorded: intensified these ACM features”.

Consider `CC[C@H](C)C(=O)N1CCC(NC(=O)Nc2ccc(OC(F)(F)F)c(F)c2)CC1` [drawing 88], for which, in series [1], the Cmax stood at 42 ± 6 nM, the “Rat T1/2” value came to 1.6 ± 0.2 h and the “Rat Tmax” value was found to be 1.8 ± 0.1 h. Further, the “Rat AUC” value in [1] (PEG 300) came to 0.208 ± 0.025 µM·h. Further, the “Exp. LogP” value in series [5] is 5.98. The compound also displayed an AUC in series [2] (oral gavage) of 0.0998 ± 0.0001 µM·h. Further, the Cmax in series [2] (Mouse Cmax, oral gavage) stood at 737 nM. The half-life in series [2] (Mouse T1/2, oral gavage) is 117 h. Further, the Tmax in series [2] (Mouse Tmax, oral gavage) turned out to be 1.6 h.

On to `O=C(Nc1ccc(OC(F)(F)F)cc1)N[C@H]1CC[C@H](Oc2ccc(C(=O)O)cc2)CC1` [Compound 3.023], for which, in [4], the “ACM disease features overall (plakoglobin, Cx43, pRelA/p65, TUNEL), sEH inhibitors” value (from here on “ACM disease features overall … sEH inhibitors”) is recorded as “showed similar results”.

`CCC(=O)N1CCC(NC(=O)Nc2ccc(OC(F)(F)F)cc2)CC1` [Compound 1.045]: in series [4], the “Loss of cell surface signal for Cx43” value was “reduced loss of cell surface signal for Cx43”; the “Redistribution of junctional plakoglobin to intracellular/nuclear sites” value was “prevented redistribution of junctional plakoglobin; also recorded: prevented translocation of junctional plakoglobin”; the “ACM disease features overall … sEH inhibitors” value was “reversed”. Also, the “Activation of NFκB (nuclear signal for pRelA/p65)” value in series [6] is “prevented activation of NFκB; also recorded: blocked activation of NFκB”. The LV function entry in [7] is “marked recovery of LV function; also recorded: recovered LV function”. In addition, the “Myocyte apoptosis (TUNEL+ nuclei)” value in series [8] was “greatly diminished myocyte apoptosis”.

`NS(=O)(=O)c1ccc(-n2nc(CCCNC(=O)Nc3ccc(C(F)(F)F)cc3)cc2-c2ccccc2)cc1` [Compound 2.017]: in [4], the “Loss of cell surface signal for Cx43” value is given as “reduced loss of cell surface signal for Cx43”; the “Redistribution of junctional plakoglobin to intracellular/nuclear sites” value is recorded as “prevented redistribution of junctional plakoglobin; also recorded: prevented translocation of junctional plakoglobin”; the “ACM disease features overall … sEH inhibitors” value is given as “reversed”. Besides, in series [6], the “Activation of NFκB (nuclear signal for pRelA/p65)” value is listed as “prevented activation of NFκB; also recorded: blocked activation of NFκB”. Also, in [8], the “Myocyte apoptosis (TUNEL+ nuclei)” value is “greatly diminished myocyte apoptosis”.

In the case of `CC[C@H](C)C(=O)N1CCC(NC(=O)Nc2ccc(OC(F)(F)F)c(F)c2)CC1` [Compound 1.002], the “ACM disease features overall … sEH inhibitors” value in [4] is “showed similar results”.

As to `CCCCCC1OC1C/C=C\C/C=C\C/C=C\CCCC(=O)O` (stereo not drawn) [14,15-EET, reference compound], the “ACM disease features/readouts overall, EET and EEZE” value in [4] was “produced potent salutary effects; also recorded: reversed”.

As to `CC[C@H](C)C(=O)N1CCC(CC(=O)Nc2ccc(OC(F)(F)F)cc2F)CC1`, the logP in [5] (read-out: Exp. LogP) was 6. In addition, the solubility in series [9] came to 2.6 µg/mL (≈ 6.43 µM). For the same compound, in series [3], the affinity corresponds to a Ki of 4.72 nM and the “Human In vitro t1/2 (time for half of the drug being dissociated from the enzyme)” value turned out to be 0.0783 h.

As to `O=C(Nc1ccc(C(F)(F)F)c(F)c1)NC1CCN(C(=O)[C@@H]2CCOC2)CC1` (stereo in doubt), the “Exp. LogP” value in series [5] is listed as 3.41.

On to `CC[C@H](C)C(=O)N1CCC(NC(=O)Nc2ccc(C(F)(F)F)nc2)CC1`, for which, in series [3], the “Human In vitro t1/2 (time for half of the drug being dissociated from the enzyme)” value was 0.0617 h.

The term Cmax denotes the highest concentration seen after dosing. What is called Tmax is the time from dosing to the highest level. By AUC is commonly meant concentration integrated over time. Read a low AUC as low exposure. As a reminder, the logP is the decadic logarithm of the partition coefficient of the neutral form, usually between octanol and water. What is called solubility is the concentration that dissolves in the medium under given conditions. By Ki is commonly meant a measure of affinity in units of concentration, obtained from inhibition or displacement. Read a high Ki as a looser hold on the target.

The values are drawn from patent US20240024302A1, “SOLUBLE EPOXIDE HYDROLASE (sEH) INHIBITORS AND DUAL COX/sEH INHIBITORS FOR THE TREATMENT OF ARRHYTHMOGENIC CARDIOMYOPATHY” (BETH ISRAEL DEACONESS MEDICAL CENTER, INC., priority 2020, published 2024).
